Data reported in ChEMBL document CHEMBL1201862, “PubChem BioAssay data set” (2004).
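Dose response: 5 concentrations. Exposure: 48 h. Format: 96-well plates. Endpoint: linear interpolation; highest concentration if not reached. GI50 is the concentration that inhibits growth by half.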 The source made the active and inactive calls. Cut-off read from the data, not from the text of the source: active = GI50 up to about 1.1 µM and inactive = higher.

Assays:
Test in all cases: NCI-60 cell line screen, 48 h
A498 = system: A498
COLO 205 = system: COLO 205
EKVX = system: EKVX
HCT-116 = system: HCT-116
HOP-92 = system: HOP-92
M14 = system: M14
OVCAR-3 = system: OVCAR-3
OVCAR-8 = system: OVCAR-8
RPMI-8226 = system: RPMI-8226
RXF 393 = system: RXF 393
SF-295 = system: SF-295
SK-MEL-28 = system: SK-MEL-28
SK-MEL-2 = system: SK-MEL-2
SN12C = system: SN12C
SNB-19 = system: SNB-19
SW-620 = system: SW-620
U-251 = system: U-251
UACC-257 = system: UACC-257
UACC-62 = system: UACC-62
UO-31 = system: UO-31

Compound | GI50 (A498) | GI50 (COLO 205) | GI50 (EKVX) | GI50 (HCT-116) | GI50 (HOP-92) | GI50 (M14) | GI50 (OVCAR-3) | GI50 (OVCAR-8) | GI50 (RPMI-8226) | GI50 (RXF 393) | GI50 (SF-295) | GI50 (SK-MEL-28) | GI50 (SK-MEL-2) | GI50 (SN12C) | GI50 (SNB-19) | GI50 (SW-620) | GI50 (U-251) | GI50 (UACC-257) | GI50 (UACC-62) | GI50 (UO-31)
CCCC(=O)Nc1cc(/C=C/C(=O)N2CC(CCl)c3c2cc(OCc2ccccc2)c2[nH]cc(C)c32)n(C)c1 (stereo unspecified) | 0.0953 µM (active) | 0.188 µM (active) | 0.136 µM (active) | 0.0272 µM (active) | 0.0698 µM (active) | 0.142 µM (active) | 0.127 µM (active) | 0.0221 µM (active) | 0.0745 µM (active) | 0.0383 µM (active) | 0.0317 µM (active) | 0.215 µM (active) | 0.074 µM (active) | 0.186 µM (active) | 0.337 µM (active) | 0.0597 µM (active) | 0.0513 µM (active) | 0.105 µM (active) | 0.027 µM (active) | 0.0493 µM (active)
Cc1sc(N)c(S(=O)(=O)c2ccccc2)c1C | > 100 µM (inactive) | > 100 µM (inactive) | > 100 µM (inactive) | > 100 µM (inactive) | > 100 µM (inactive) | > 100 µM (inactive) | 80.5 µM (inactive) | > 100 µM (inactive) | > 100 µM (inactive) | > 100 µM (inactive) | > 100 µM (inactive) | > 100 µM (inactive) | > 100 µM (inactive) | > 100 µM (inactive) | > 100 µM (inactive) | > 100 µM (inactive) | > 100 µM (inactive) | > 100 µM (inactive) | > 100 µM (inactive) | > 100 µM (inactive)
Cc1ccc2c3c4c(ccc13)C(C)(C)OC4=C(C(C)C)C2=O | > 100 µM (inactive) | 31.3 µM (inactive) | 63.5 µM (inactive) | 53.1 µM (inactive) | 19.5 µM (inactive) | 45.1 µM (inactive) | 13.8 µM (inactive) | 44.7 µM (inactive) | 43.7 µM (inactive) | 17.4 µM (inactive) | 88.3 µM (inactive) | 91.6 µM (inactive) | 17 µM (inactive) | > 100 µM (inactive) | > 100 µM (inactive) | > 100 µM (inactive) | 79.8 µM (inactive) | 30.5 µM (inactive) | 50.9 µM (inactive) | > 100 µM (inactive)
O=C(O)c1cc2c3c(c1)[C@H]1C=CC[C@H]1CN3CC1CC=CC21 (stereo partly specified) | > 100 µM (inactive) | > 100 µM (inactive) | > 100 µM (inactive) | > 100 µM (inactive) | > 100 µM (inactive) | > 100 µM (inactive) | > 100 µM (inactive) | > 100 µM (inactive) | > 100 µM (inactive) | > 100 µM (inactive) | > 100 µM (inactive) | – | > 100 µM (inactive) | > 100 µM (inactive) | > 100 µM (inactive) | > 100 µM (inactive) | > 100 µM (inactive) | > 100 µM (inactive) | > 100 µM (inactive) | > 100 µM (inactive)
COc1ccc2cc(/C=N/NC(=O)Nc3ccccc3)ccc2c1 | > 100 µM (inactive) | > 100 µM (inactive) | – | > 100 µM (inactive) | > 100 µM (inactive) | > 100 µM (inactive) | > 100 µM (inactive) | > 100 µM (inactive) | > 100 µM (inactive) | > 10 µM (inactive) | > 100 µM (inactive) | > 10 µM (inactive) | > 100 µM (inactive) | > 100 µM (inactive) | > 100 µM (inactive) | > 100 µM (inactive) | > 100 µM (inactive) | > 100 µM (inactive) | > 100 µM (inactive) | > 100 µM (inactive)
CCOC(=O)c1ccc(N[C@@H]2c3cc4c(cc3C(c3cc(OC)c(O)c(OC)c3)[C@H]3C(=O)OCC32)OCO4)cc1O (stereo partly specified) | 0.607 µM (active) | 1.18 µM (inactive) | 2.25 µM (inactive) | 0.505 µM (active) | 1.19 µM (inactive) | – | 2.43 µM (inactive) | 1.77 µM (inactive) | 0.94 µM (active) | 1.88 µM (inactive) | 0.498 µM (active) | 1.22 µM (inactive) | 0.809 µM (active) | 1.64 µM (inactive) | 0.652 µM (active) | 0.942 µM (active) | 0.92 µM (active) | 2.91 µM (inactive) | 0.469 µM (active) | 0.34 µM (active)
C=C1C(=O)C[C@@]23CCC[C@@]12CC(O)C3 (stereo partly specified) | 15 µM (inactive) | 21.3 µM (inactive) | 27.3 µM (inactive) | 19 µM (inactive) | 19.3 µM (inactive) | – | 13.1 µM (inactive) | 32.7 µM (inactive) | 15.6 µM (inactive) | 13.7 µM (inactive) | 37.8 µM (inactive) | 21.5 µM (inactive) | 24.6 µM (inactive) | 16.9 µM (inactive) | 85.7 µM (inactive) | 18.7 µM (inactive) | 40.3 µM (inactive) | 18.7 µM (inactive) | 13.6 µM (inactive) | 37.6 µM (inactive)
